Results: patent US10202378B2, “Therapeutic compounds and uses thereof” (GENENTECH, INC., priority 2015, dated 2019)

Key:
[1] = molecular target: TAF1-BD2 (Homo sapiens, UniProt P21675); assay: TAF1-BD2 TR-FRET Binding Assay; details: read-out: TAF1-BD2 HTRF IC50
Procedure: IC50 Measurements for Inhibitors Using TAF1-BD2 TR-FRET Binding Assay
His/Flag epitope tagged TAF1-BD21504-1635 was cloned, expressed, and purified to homogeneity. TAF1-BD2 binding and inhibition was assessed by monitoring the engagement of a biotinylated small molecule compound 1000 with the target using the TR-FRET assay technology (Perkin-Elmer). Specifically, in a 384 well ProxiPlate, TAF1-BD2 (0.012 uM final) in 50 mM HEPES (pH 7.5; final), 50 mM NaCl (final), 1 mM TCEP (final), 0.1 mg/mL BSA (final), and 0.069 mM Brij-35 (final) was added either in the presence of DMSO (final 0.2% DMSO) or compound dilution series in DMSO. After a 10 minute incubation at room temperature, biotin-ligand (0.04 uM final) was added. After 10 minutes incubation at room temperature, a mixture Eu-W1024 Anti-6×His antibody (Perkin Elmer AD0110) and SureLight™ Streptavidin-Allophycocyanin (SA-APC, Perkin Elmer CR130-100) were added to a final concentration of 0.2 nM antibody and 0.025 uM SA-APC, respectively. After forty minutes of equilibration at room temperature, the plates were read on an Envision instrument and IC50s calculated using a four parameter logistic model (XLFIT).

[2] = molecular target: TAF1-BD1 (Homo sapiens, UniProt P21675); assay: TAF1-BD1 TR-FRET Binding Assay; details: read-out: TAF1-BD1 HTRF IC50
Procedure: IC50 Measurements for Inhibitors Using TAF1-BD1 TR-FRET Binding Assay
His/Flag epitope tagged TAF1-BD11381-1497 was cloned, expressed, and purified to homogeneity. TAF1-BD binding and inhibition was assessed by monitoring the engagement of a biotinylated small molecule compound 1000 with the target using the TR-FRET assay technology (Perkin-Elmer). Specifically, in a 384 well ProxiPlate, TAF1-BDI (0.08 uM final) in 50 mM HEPES (pH 7.5; final), 50 mM NaCl (final), 1 mM TCEP (final), 0.1 mg/mL BSA (final), and 0.069 mM Brij-35 (final) was added either in the presence of DMSO (final 0.2% DMSO) or compound dilution series in DMSO. After a 10 minute incubation at room temperature, biotin-ligand (0.08 uM final) was added. After 10 minutes incubation at room temperature, a mixture Eu-W1024 Anti-6×His antibody (Perkin Elmer ADO 110) and SureLight™ Streptavidin-Allophycocyanin (SA-APC, Perkin Elmer CR130-100) were added to final concentrations of 0.2 nM antibody and 0.05 uM SA-APC, respectively. After forty minutes of equilibration at room temperature, the plates were read on an Envision instrument and IC50s calculated using a four parameter logistic model (XLFIT).

SMILES | IC50 [1] | IC50 [2]
CCOC(=O)c1c(C)[nH]c2c(=O)n(C)cc(C#CC(O)(c3ccccc3)C(F)(F)F)c12 (single isomer, unassigned) [Example 91b, ethyl 2,6-dimethyl-7-oxo-4-(4,4,4-trifluoro-3-hydroxy-3-phenyl-but-1-ynyl)-1H-pyrrolo[2,3-c]pyridine-3-carboxylate] | 42.2 nM | 184 nM
Cc1[nH]c2c(=O)n(C)cc(C#CC(C)(O)C3CC3)c2c1-c1nnc(C(C)C)o1 (centres unmarked) [Example 191, 4-(3-cyclopropyl-3-hydroxy-but-1-ynyl)-3-(5-isopropyl-1,3,4-oxadiazol-2-yl)-2,6-dimethyl-1H-pyrrolo[2,3-c]pyridin-7-one] | 36.4 nM | 270 nM
CC(=O)NCc1nnc(-c2c(C)[nH]c3c(=O)n(C)cc(C#CC(C)(O)C4CC4)c23)o1 (centres unmarked) [Example 174, N-[[5-[4-(3-cyclopropyl-3-hydroxy-but-1-ynyl)-2,6-dimethyl-7-oxo-1H-pyrrolo[2,3-c]pyridin-3-yl]-1,3,4-oxadiazol-2-yl]methyl]acetamide] | 86.4 nM | 521 nM
Cc1[nH]c2c(=O)n(C)cc(C#CC(C)(O)C(C)C)c2c1C(=O)OCC(C)C (centres unmarked) [Example 128, isobutyl 4-(3-hydroxy-3,4-dimethyl-pent-1-ynyl)-2,6-dimethyl-7-oxo-1H-pyrrolo[2,3-c]pyridine-3-carboxylate] | 62 nM | 253 nM
CCOC(=O)c1c(C)[nH]c2c(=O)n(C)cc(C#CC3(O)CCc4cccnc43)c12 (single isomer, unassigned) [Example 99b, ethyl 4-[2-(7-hydroxy-5,6-dihydrocyclopenta[b]pyridin-7-yl)ethynyl]-2,6-dimethyl-7-oxo-1H-pyrrolo[2,3-c]pyridine-3-carboxylate] | 84.4 nM | 881 nM
Cc1[nH]c2c(=O)n(C)cc(C#CC(C)(O)C3CC3)c2c1-c1nnc(C(C)CN2CCOCC2)o1 (centres unmarked) [Example 176, 4-(3-cyclopropyl-3-hydroxy-but-1-ynyl)-2,6-dimethyl-3-[5-(1-methyl-2-morpholino-ethyl)-1,3,4-oxadiazol-2-yl]-1H-pyrrolo[2,3-c]pyridin-7-one] | 38.3 nM | 241 nM
Cc1[nH]c2c(=O)n(C)cc(C#CC(C)(O)CO)c2c1C(=O)OCC(C)C (centres unmarked) [Example 127, isobutyl 4-(3,4-dihydroxy-3-methyl-but-1-ynyl)-2,6-dimethyl-7-oxo-1H-pyrrolo[2,3-c]pyridine-3-carboxylate] | 68.4 nM | 727 nM
C=CCCn1cc(C#CC(C)(C)O)c2c(C(=O)OCc3ccccc3C)c(C)[nH]c2c1=O [Example 124, o-tolylmethyl 6-but-3-enyl-4-(3-hydroxy-3-methyl-but-1-ynyl)-2-methyl-7-oxo-1H-pyrrolo[2,3-c]pyridine-3-carboxylate] | 59.7 nM | > 20000 nM
C=CCn1cc(C#CC(C)(C)O)c2c(C(=O)OCC)c(C)[nH]c2c1=O [Example 51, ethyl 6-allyl-4-(3-hydroxy-3-methyl-but-1-ynyl)-2-methyl-7-oxo-1H-pyrrolo[2,3-c]pyridine-3-carboxylate] | 227 nM | 7200 nM
Cc1[nH]c2c(=O)n(C)cc(C#CC(C)(O)C3CC3)c2c1-c1nnc(C2CCOC2)o1 (single isomer, unassigned) [Example 96a, 4-(3-cyclopropyl-3-hydroxy-but-1-ynyl)-2,6-dimethyl-3-(5-tetrahydrofuran-3-yl-1,3,4-oxadiazol-2-yl)-1H-pyrrolo[2,3-c]pyridin-7-one] | 40.7 nM | 182 nM
CCOC(=O)c1c(C)[nH]c2c(=O)n(C)cc(C#CC(O)(c3ccccc3)C(F)F)c12 (single isomer, unassigned) [Example 93b, ethyl 4-(4,4-difluoro-3-hydroxy-3-phenyl-but-1-ynyl)-2,6-dimethyl-7-oxo-1H-pyrrolo[2,3-c]pyridine-3-carboxylate] | 21.4 nM | 176 nM
Cc1cccc(COC(=O)c2c(C)[nH]c3c(=O)n(C)cc(C#CC(C)(C)O)c23)c1 [Example 118, m-tolylmethyl 4-(3-hydroxy-3-methyl-but-1-ynyl)-2,6-dimethyl-7-oxo-1H-pyrrolo[2,3-c]pyridine-3-carboxylate] | 38.9 nM | 167 nM
Cc1[nH]c2c(=O)n(C)cc(C#CC(C)(C)O)c2c1C(=O)OCC1CCCC1 [Example 148, cyclopentylmethyl 4-(3-hydroxy-3-methyl-but-1-ynyl)-2,6-dimethyl-7-oxo-1H-pyrrolo[2,3-c]pyridine-3-carboxylate] | 23.7 nM | 96.8 nM
Cc1[nH]c2c(=O)n(C)cc(C#CC(C)(C)O)c2c1C(=O)NC(C)C [Example 169, 4-(3-hydroxy-3-methyl-but-1-ynyl)-N-isopropyl-2,6-dimethyl-7-oxo-1H-pyrrolo[2,3-c]pyridine-3-carboxamide] | 2670 nM | 5310 nM
CCOC(=O)c1c(C)[nH]c2c(=O)n(C)cc(C#Cc3cccc(N)c3)c12 [Example 60, ethyl 4-[2-(3-aminophenyl)ethynyl]-2,6-dimethyl-7-oxo-1H-pyrrolo[2,3-c]pyridine-3-carboxylate] | 38.1 nM | 120 nM
CCOC(=O)c1c(C)[nH]c2c(=O)n(C)cc(C#CC(C)(O)C3CCOCC3)c12 (centres unmarked) [Example 87, ethyl 4-(3-hydroxy-3-tetrahydropyran-4-yl-but-1-ynyl)-2,6-dimethyl-7-oxo-1H-pyrrolo[2,3-c]pyridine-3-carboxylate] | 181 nM | 770 nM
CC(=O)c1c(C)[nH]c2c(=O)n(C)cc(C#CC(C)(C)O)c12 [Example 199a, 3-acetyl-4-(3-hydroxy-3-methyl-but-1-ynyl)-2,6-dimethyl-1H-pyrrolo[2,3-c]pyridin-7-one] | 130 nM | 1300 nM
CCNC(=O)c1c(C)[nH]c2c(=O)n(C)cc(C#CC(C)(C)O)c12 [Example 168, N-ethyl-4-(3-hydroxy-3-methyl-but-1-ynyl)-2,6-dimethyl-7-oxo-1H-pyrrolo[2,3-c]pyridine-3-carboxamide] | 1630 nM | 5790 nM
CCOC(=O)c1c(C)[nH]c2c(=O)n(C)cc(C#CC3(O)CCCC3)c12 [Example 20, ethyl 4-[2-(1-hydroxycyclopentyl)ethynyl]-2,6-dimethyl-7-oxo-1H-pyrrolo[2,3-c]pyridine-3-carboxylate] | 21.9 nM | 282 nM
CCOC(=O)c1c(C)[nH]c2c(=O)n(C)cc(C#CC3(O)CCOCC3)c12 [Example 88, ethyl 4-[2-(4-hydroxytetrahydropyran-4-yl)ethynyl]-2,6-dimethyl-7-oxo-1H-pyrrolo[2,3-c]pyridine-3-carboxylate] | 98.6 nM | 1110 nM
C=CCCn1cc(C#C[C@@](C)(O)c2cc(C)on2)c2c(C(=O)OCC(C)C)c(C)[nH]c2c1=O [Example 125, isobutyl 6-but-3-enyl-4-[(3R)-3-hydroxy-3-(5-methylisoxazol-3-yl)but-1-ynyl]-2-methyl-7-oxo-1H-pyrrolo[2,3-c]pyridine-3-carboxylate] | 169 nM | 3050 nM
CCOC(=O)c1c(C)[nH]c2c(=O)n(C)cc(C#CC(C)(O)COc3ccccc3)c12 (centres unmarked) [Example 17, ethyl 4-(3-hydroxy-3-methyl-4-phenoxy-but-1-ynyl)-2,6-dimethyl-7-oxo-1H-pyrrolo[2,3-c]pyridine-3-carboxylate] | 67.3 nM | 404 nM
CCOC(=O)c1c(C)[nH]c2c(=O)n(C)cc(C#CC(O)(CC)CC)c12 [Example 24, ethyl 4-(3-ethyl-3-hydroxy-pent-1-ynyl)-2,6-dimethyl-7-oxo-1H-pyrrolo[2,3-c]pyridine-3-carboxylate] | 138 nM | 536 nM
CCOC(=O)c1c(C)[nH]c2c(=O)n(C)cc(C#CC(C)(C)CO)c12 [Example 15, ethyl 4-(4-hydroxy-3,3-dimethyl-but-1-ynyl)-2,6-dimethyl-7-oxo-1H-pyrrolo[2,3-c]pyridine-3-carboxylate] | 189 nM | 343 nM
Cc1[nH]c2c(=O)n(C)cc(C#CC(O)(c3ccccc3)C(F)(F)F)c2c1-c1nnc(C2CC2)o1 (centres unmarked) [Example 180, 3-(5-cyclopropyl-1,3,4-oxadiazol-2-yl)-2,6-dimethyl-4-(4,4,4-trifluoro-3-hydroxy-3-phenyl-but-1-ynyl)-1H-pyrrolo[2,3-c]pyridin-7-one] | 47.1 nM | 249 nM
